ChEMBL document CHEMBL3994622, “Design and synthesis of new RAF kinase-inhibiting antiproliferative quinoline derivatives. Part 2: Diarylurea derivatives” (Eur J Med Chem, 2017)

Experiments:
Format in all cases: functional
[1] = tested on: SF-268; assay: Growth inhibition of human SF268 cells assessed as cell growth at 30 uM incubated for 48 hrs by sulforhodamine B assay relative to control; details: SF-268, 48 h, read-out: Activity
[2] = tested on: RXF 393; assay: Growth inhibition of human RXF393 cells assessed as cell growth at 0.003 uM incubated for 48 hrs by sulforhodamine B assay relative to control; details: RXF 393, 48 h, read-out: Activity
[3] = tested on: 786-0; assay: Growth inhibition of human 786-0 cells assessed as cell growth at 0.003 uM incubated for 48 hrs by sulforhodamine B assay relative to control; details: 786-0, 48 h, read-out: Activity
[4] = tested on: RXF 393; assay: Growth inhibition of human RXF393 cells assessed as cell growth at 0.03 uM incubated for 48 hrs by sulforhodamine B assay relative to control; details: RXF 393, 48 h, read-out: Activity
[5] = tested on: NCI-H460; assay: Growth inhibition of human NCI-H460 cells assessed as cell growth at 0.003 uM incubated for 48 hrs by sulforhodamine B assay relative to control; details: NCI-H460, 48 h, read-out: Activity
[6] = tested on: MOLT-4; assay: Growth inhibition of human MOLT4 cells assessed as cell growth at 0.03 uM incubated for 48 hrs by sulforhodamine B assay relative to control; details: MOLT-4, 48 h, read-out: Activity
[7] = tested on: MCF7; assay: Growth inhibition of human MCF7 cells assessed as cell growth at 30 uM incubated for 48 hrs by sulforhodamine B assay relative to control; details: MCF7, 48 h, read-out: Activity
[8] = tested on: NCI-H226; assay: Growth inhibition of human NCI-H226 cells assessed as cell growth at 0.03 uM incubated for 48 hrs by sulforhodamine B assay relative to control; details: NCI-H226, 48 h, read-out: Activity
[9] = tested on: MDA-MB-231; assay: Growth inhibition of human MDA-MB-231 cells assessed as cell growth at 0.3 uM incubated for 48 hrs by sulforhodamine B assay relative to control; details: MDA-MB-231, 48 h, read-out: Activity
[10] = tested on: RXF 393; assay: Growth inhibition of human RXF393 cells assessed as cell growth at 0.3 uM incubated for 48 hrs by sulforhodamine B assay relative to control; details: RXF 393, 48 h, read-out: Activity
[11] = tested on: SF-539; assay: Growth inhibition of human SF539 cells assessed as cell growth at 30 uM incubated for 48 hrs by sulforhodamine B assay relative to control; details: SF-539, 48 h, read-out: Activity
[12] = tested on: RPMI-8226; assay: Growth inhibition of human RPMI8226 cells assessed as cell growth at 0.03 uM incubated for 48 hrs by sulforhodamine B assay relative to control; details: RPMI-8226, 48 h, read-out: Activity
[13] = tested on: HOP-62; assay: Growth inhibition of human HOP62 cells assessed as cell growth at 3 uM incubated for 48 hrs by sulforhodamine B assay relative to control; details: HOP-62, 48 h, read-out: Activity
[14] = tested on: ACHN; assay: Growth inhibition of human ACHN cells assessed as cell growth at 0.03 uM incubated for 48 hrs by sulforhodamine B assay relative to control; details: read-out: Activity
[15] = tested on: UO-31; assay: Growth inhibition of human UO31 cells assessed as cell growth at 30 uM incubated for 48 hrs by sulforhodamine B assay relative to control; details: UO-31, 48 h, read-out: Activity
[16] = tested on: SK-MEL-28; assay: Growth inhibition of human SK-MEL-28 cells assessed as cell growth at 0.003 uM incubated for 48 hrs by sulforhodamine B assay relative to control; details: SK-MEL-28, 48 h, read-out: Activity
[17] = tested on: UO-31; assay: Growth inhibition of human UO31 cells assessed as cell growth at 3 uM incubated for 48 hrs by sulforhodamine B assay relative to control; details: UO-31, 48 h, read-out: Activity
[18] = tested on: TK-10; assay: Growth inhibition of human TK10 cells assessed as cell growth at 3 uM incubated for 48 hrs by sulforhodamine B assay relative to control; details: TK-10, 48 h, read-out: Activity
[19] = tested on: COLO 205; assay: Growth inhibition of human COLO205 cells assessed as cell growth at 0.01 uM incubated for 48 hrs by sulforhodamine B assay relative to control; details: COLO 205, 48 h, read-out: Activity
[20] = tested on: SN12C; assay: Growth inhibition of human SN12C cells assessed as cell growth at 100 uM incubated for 48 hrs by sulforhodamine B assay relative to control; details: read-out: Activity
[21] = tested on: UO-31; assay: Growth inhibition of human UO31 cells assessed as cell growth at 10 uM incubated for 48 hrs by sulforhodamine B assay relative to control; details: UO-31, 48 h, read-out: Activity
[22] = tested on: A498; assay: Growth inhibition of human A498 cells assessed as cell growth at 100 uM incubated for 48 hrs by sulforhodamine B assay relative to control; details: A498, 48 h, read-out: Activity
[23] = tested on: SK-MEL-2; assay: Growth inhibition of human SK-MEL-2 cells assessed as cell growth at 100 uM incubated for 48 hrs by sulforhodamine B assay relative to control; details: SK-MEL-2, 48 h, read-out: Activity
[24] = tested on: HCT-116; assay: Growth inhibition of human HCT116 cells assessed as cell growth at 10 uM incubated for 48 hrs by sulforhodamine B assay relative to control; details: HCT-116, 48 h, read-out: Activity
[25] = tested on: 786-0; assay: Growth inhibition of human 786-0 cells assessed as cell growth at 10 uM incubated for 48 hrs by sulforhodamine B assay relative to control; details: 786-0, 48 h, read-out: Activity
[26] = tested on: HCC 2998; assay: Growth inhibition of human HCC2998 cells assessed as cell growth at 100 uM incubated for 48 hrs by sulforhodamine B assay relative to control; details: HCC 2998, 48 h, read-out: Activity
[27] = tested on: TK-10; assay: Growth inhibition of human TK10 cells assessed as cell growth at 100 uM incubated for 48 hrs by sulforhodamine B assay relative to control; details: TK-10, 48 h, read-out: Activity
[28] = tested on: UACC-257; assay: Growth inhibition of human UACC257 cells assessed as cell growth at 0.1 uM incubated for 48 hrs by sulforhodamine B assay relative to control; details: UACC-257, 48 h, read-out: Activity
[29] = tested on: 786-0; assay: Growth inhibition of human 786-0 cells assessed as cell growth at 100 uM incubated for 48 hrs by sulforhodamine B assay relative to control; details: 786-0, 48 h, read-out: Activity
[30] = tested on: NCI-H460; assay: Growth inhibition of human NCI-H460 cells assessed as cell growth at 0.1 uM incubated for 48 hrs by sulforhodamine B assay relative to control; details: NCI-H460, 48 h, read-out: Activity
[31] = tested on: SF-295; assay: Growth inhibition of human SF295 cells assessed as cell growth at 1 uM incubated for 48 hrs by sulforhodamine B assay relative to control; details: SF-295, 48 h, read-out: Activity
[32] = tested on: MOLT-4; assay: Growth inhibition of human MOLT4 cells assessed as cell growth at 1 uM incubated for 48 hrs by sulforhodamine B assay relative to control; details: MOLT-4, 48 h, read-out: Activity
[33] = tested on: HL-60(TB); assay: Growth inhibition of human HL-60(TB) cells assessed as cell growth at 1 uM incubated for 48 hrs by sulforhodamine B assay relative to control; details: HL-60, 48 h, read-out: Activity
[34] = tested on: Malme-3M; assay: Growth inhibition of human MALME-3M cells assessed as cell growth at 10 uM incubated for 48 hrs by sulforhodamine B assay relative to control; details: read-out: Activity
[35] = tested on: TK-10; assay: Growth inhibition of human TK10 cells assessed as cell growth at 10 uM incubated for 48 hrs by sulforhodamine B assay relative to control; details: TK-10, 48 h, read-out: Activity

SMILES	growth at 30 µM [1] [%]	growth at 0.003 µM [2] [%]	growth at 0.003 µM [3] [%]	growth at 0.03 µM [4] [%]	growth at 0.003 µM [5] [%]	growth at 0.03 µM [6] [%]	growth at 30 µM [7] [%]	growth at 0.03 µM [8] [%]	growth at 0.3 µM [9] [%]	growth at 0.3 µM [10] [%]	growth at 30 µM [11] [%]	growth at 0.03 µM [12] [%]	growth at 3 µM [13] [%]	growth at 0.03 µM [14] [%]	growth at 30 µM [15] [%]	growth at 0.003 µM [16] [%]	growth at 3 µM [17] [%]	growth at 3 µM [18] [%]	growth at 0.01 µM [19] [%]	growth at 100 µM [20] [%]	further results
COc1cc2cc(Oc3ccc(NC(=O)Nc4ccc(Cl)c(C(F)(F)F)c4)cc3)c(C)nc2cc1OC	-64	106	97	104	106	96	-79	98	87	113	-49	98	26	97	-71	99	-17	18			
COc1cc2cc(Oc3ccc(NC(=O)Nc4ccc(Cl)c(Cl)c4)cc3)c(C)nc2cc1OC																			106	-41	growth at 10 µM [21]: 6%; growth at 100 µM [22]: -56%; growth at 100 µM [23]: -100%; growth at 10 µM [24]: 2%; growth at 10 µM [25]: 22%; growth at 100 µM [26]: -9%; growth at 100 µM [27]: -76%; growth at 0.1 µM [28]: 92%; growth at 100 µM [29]: -66%; growth at 0.1 µM [30]: 103%; growth at 1 µM [31]: 80%; growth at 1 µM [32]: 90%; growth at 1 µM [33]: 107%; growth at 10 µM [34]: -14%
Cc1nc2cc(O)c(O)cc2cc1Oc1ccc(NC(=O)Nc2ccc(Cl)c(Cl)c2)cc1	1	100	98	96	102	111	1	103	118	103	-19	98	87	107	-51	90	100	98			growth at 10 µM [35]: 85.3%
COc1cc2cc(Oc3ccc(NC(=O)Nc4cc(C(F)(F)F)cc(C(F)(F)F)c4)cc3)c(C)nc2cc1OC																			93	-74	growth at 10 µM [35]: 13.2%; growth at 10 µM [21]: -70%; growth at 100 µM [22]: -93%; growth at 100 µM [23]: -69%; growth at 10 µM [24]: -84%; growth at 10 µM [25]: -90%; growth at 100 µM [26]: -92%; growth at 100 µM [27]: -95%; growth at 0.1 µM [28]: 110%; growth at 100 µM [29]: -83%; growth at 0.1 µM [30]: 107%; growth at 1 µM [31]: 31%; growth at 1 µM [32]: 55%; growth at 1 µM [33]: 72%; growth at 10 µM [34]: -46%
